Assay results published in patent US11229636B2, “Substituted tetrahydroquinolinone compounds as ROR gamma modulators” (Aurigene Discovery Technologies Limited, priority 2015, dated 2022).

What was measured:
RORγ LBD = RORγ LBD (Homo sapiens (Human), UniProt P51449); assay: ROR gamma radio-ligand binding assay (3H 25-Hydroxycholesterol competitive displacement, dextran charcoal method); conditions: for inhibition at 1 µM: 1 μM compound; for inhibition at 10 µM: 10 μM compound; for IC50: in range
Procedure, shortened: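 Human RORγ LBD (aa 247–497) was expressed as a GST fusion in E. coli and purified. For binding, 300 ng protein, 5 nM ³H-25-hydroxycholesterol and compound were incubated for 30 min at room temperature in 50 mM HEPES pH 7.5, 150 mM NaCl, 0.01% BSA and 5 mM MgCl2. After dextran-charcoal separation, the supernatant was counted and 10-point curves were fitted by variable-slope sigmoid.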

[1] = biological target: ROR gamma ligand binding domain (Homo sapiens (Human), UniProt P51449); assay: ROR gamma luciferase reporter assay (GAL4-ROR gamma LBD, HEK293 cells); type: cell-based; conditions: 48 hours treatment, read-out: RORγ luciferase Reporter assay: IC50 (nM) (in range)
Procedure, shortened: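 HEK293 cells were co-transfected with a GAL4 DBD–RORγ LBD fusion (hRluc vector) and a 9xGAL4 UAS luc2P reporter, then treated with compounds for 48 h. Bright-Glo luminescence was used to derive potency.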

[2] = test system: EL-4 murine lymphoma cell line; conditions: cited from earlier work

ROR gamma ligand binding domain, sequence (P51449 269-508): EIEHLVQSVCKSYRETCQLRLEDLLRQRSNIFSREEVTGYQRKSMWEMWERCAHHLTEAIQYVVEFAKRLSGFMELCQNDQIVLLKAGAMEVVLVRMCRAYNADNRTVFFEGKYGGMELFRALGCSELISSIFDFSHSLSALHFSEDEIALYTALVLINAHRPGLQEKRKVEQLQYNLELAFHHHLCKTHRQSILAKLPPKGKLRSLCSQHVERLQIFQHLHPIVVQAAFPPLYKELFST
RORγ LBD, sequence (P51449 268-518): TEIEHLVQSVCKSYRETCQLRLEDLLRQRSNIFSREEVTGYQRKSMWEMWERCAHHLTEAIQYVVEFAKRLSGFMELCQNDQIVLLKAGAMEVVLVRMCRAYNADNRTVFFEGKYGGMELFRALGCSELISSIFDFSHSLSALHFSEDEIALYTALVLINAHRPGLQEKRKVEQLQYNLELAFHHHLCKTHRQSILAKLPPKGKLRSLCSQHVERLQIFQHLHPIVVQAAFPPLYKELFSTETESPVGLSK

Compound | inhibition at 1 µM (RORγ LBD) [%] | inhibition at 10 µM (RORγ LBD) [%] | IC50 (RORγ LBD) [nM] | IC50 [1] [nM] | synthesis of IL-17 [2]
CCS(=O)(=O)c1ccc(CC(=O)Nc2ccc3c(n2)CCC(C)(c2ccnc(C(C)C)n2)C3=O)cc1 (stereo not drawn) [Compound 50, 2-(4-(ethylsulfonyl)phenyl)-N-(6-(2-isopropylpyrimidin-4-yl)-6-methyl-5-oxo-5,6,7,8-tetrahydroquinolin-2-yl)acetamide] | 91 | 90 | < 150 | 100 to 500 | –
CCS(=O)(=O)c1ccc(CC(=O)Nc2ccc3c(n2)CCC(C)(c2ncc(OC)cn2)C3=O)cc1 (stereo not drawn) [Compound 56, 2-(4-(ethylsulfonyl)phenyl)-N-(6-(5-methoxypyrimidin-2-yl)-6-methyl-5-oxo-5,6,7,8-tetrahydroquinolin-2-yl)acetamide] | 96 | 94 | < 150 | < 100 | –
CCS(=O)(=O)c1ccc(CC(=O)Nc2ccc3c(n2)CCC(C)(c2ccc(C(C)C)nn2)C3=O)cc1 (stereo not drawn) [Compound 62, 2-(4-(ethylsulfonyl)phenyl)-N-(6-(6-isopropylpyridazin-3-yl)-6-methyl-5-oxo-5,6,7,8-tetrahydroquinolin-2-yl)acetamide] | 96 | 91 | < 150 | > 500 | –
CCS(=O)(=O)c1ccc(CC(=O)Nc2cc(C)c3c(n2)CCC(C)(c2ccc(O)cn2)C3=O)cc1 (stereo not drawn) [Compound 88, 2-(4-(ethylsulfonyl)phenyl)-N-(6-(5-hydroxypyridin-2-yl)-4,6-dimethyl-5-oxo-5,6,7,8-tetrahydroquinolin-2-yl)acetamide] | 86 | 90 | 150 to 300 | > 500 | –
Cc1cc(NC(=O)Cc2ccc(S(C)(=O)=O)cc2)nc2c1C(=O)C(C)(c1ncccc1O)CC2 (stereo not drawn) [Compound 89, N-(6-(3-hydroxypyridin-2-yl)-4,6-dimethyl-5-oxo-5,6,7,8-tetrahydroquinolin-2-yl)-2-(4-(methylsulfonyl)phenyl)acetamide] | 53 | 79 | > 300 | > 500 | –
CCS(=O)(=O)c1ccc(CC(=O)Nc2ccc3c(n2)CC(C)(C)C(c2ccc(O)cn2)C3=O)cc1 (stereo not drawn) [Compound 90, 2-(4-(ethylsulfonyl)phenyl)-N-(6-(5-hydroxypyridin-2-yl)-7,7-dimethyl-5-oxo-5,6,7,8-tetrahydroquinolin-2-yl)acetamide] | 57 | 84 | 150 to 300 | > 500 | –
CCS(=O)(=O)c1ccc(CC(=O)Nc2ccc3c(n2)CC(C)C(c2ncccc2O)C3=O)cc1 (stereo not drawn) [Compound 91, 2-(4-(ethylsulfonyl)phenyl)-N-(6-(3-hydroxypyridin-2-yl)-7-methyl-5-oxo-5,6,7,8-tetrahydroquinolin-2-yl)acetamide] | 36 | 100 | > 300 | > 500 | –
CCS(=O)(=O)c1ccc(CC(=O)Nc2ccc3c(n2)CCC(C)(c2ncc(Cl)n4ccnc24)C3=O)cc1 (stereo not drawn) [Compound 92, N-(6-(5-chloroimidazo[1,2-a]pyrazin-8-yl)-6-methyl-5-oxo-5,6,7,8-tetrahydroquinolin-2-yl)-2-(4-(ethylsulfonyl)phenyl)acetamide] | 96 | 80 | < 150 | 100 to 500 | –
OC(c1ccc(-c2ccc(CN3CCN(Cc4ccncc4)CC3)cc2)c(F)c1)(C(F)(F)F)C(F)(F)F [SR2211] | – | – | – | – | suppress the synthesis of IL-17
